Patent publication US12297197B2, “Pyrazolopyridine compound as RET inhibitor and application thereof” (GUANGZHOU BAIYUNSHAN PHARMACEUTICAL HOLDINGS CO., LTD. …, priority 2019, dated 2025)

Key:
RET kinase = RET kinase (Homo sapiens, UniProt P07949); experiment: In-vitro enzyme activity test, RET kinase; type: biochemical; conditions: ATP 20 μM; 10 concentrations 3 μM to 0.152 nM
Method: (§1) The enzyme activity was detected by a Z′-LYTE™ kinase test, and inhibitory effects of the compounds onRET and RET (V804M) kinases were evaluated with an ICs value of each compound as an index.
(§2) The compounds used for RET and RET (V804M) kinase tests were diluted 3-fold, in 10 concentration gradients ranging from 3 μM to 0.152 nM; and the content of DMSO in detection reaction was 1%.
(§3) Basic reaction buffer, 20 mM 4-(2-hydroxyethyl)piperazine-1-ethanesulfonic acid (Hepes) buffer (pH 7.5), 10 mM MgCl2. 1 mM 1,2-bis[2-[bis(carboxymethyl)amino]ethoxy]ethane (EGTA), 0.02% polyoxyethylene lauryl ether (Brij35), 0.02 mg/mL bovine serum albumin, 0.1 mM of Na3VO4, 2 mM dithiothreitol (DTT) and 1% DMSO.
(§4) The compounds to be tested were dissolved in a 100% DMSO system to be diluted to 10 mM for further use. The solution was diluted by using Integra Viaflo Assist.
(§5) Test conditions: concentrations of RET kinase, peptide substrate CHKtide and adenosine triphosphate (ATP) were […], 1000 μM and 20 μM, respectively, and concentrations of RET (V804M) kinase, substrate peptide and ATP were […], 1000 μM and 30 μM, respectively.
(§6) Reaction process: compound solutions of different concentrations were added to a kinase/peptide solution prepared according to the test conditions, the obtained solution was incubated at room temperature for 20 minutes, and then 33P-ATP of corresponding concentrations were added, and the obtained solution was incubated at room temperature for 120 minutes. The radioactivity was detected by a filter-binding method.
(§7) The reaction was terminated by adding phosphoric acid (concentration, 0.5%) into a kinase reaction solution, and plate reading was carried out with an Envision instrument.
(§8) Data were converted into phosphorylation rate and inhibition rate, and the parametric curve was fitted by using GraphPad Software to obtain IC50 data of the compounds.

RET (V804M) kinase = RET (V804M) kinase (Homo sapiens, UniProt P07949, V804M); experiment: In-vitro enzyme activity test, RET (V804M) kinase; type: biochemical; conditions: ATP 30 μM; 10 concentrations 3 μM to 0.152 nM
Method: as §1, §2, §3, §4, §5, §6, §7, §8

[1] = system: Ba/F3-CCDC6-RET cell allograft tumor model; experiment: Tumor growth inhibition (TGI) in Ba/F3-CCDC6-RET cell allograft tumor model; type: in vivo, BALB/c nude female mouse
Method: Ba/F3-CCDC6-RET cell line was cultured in a 1640 medium (Biological Industries)+10% fetal bovine serum (BI)+1% Penicillin Streptomycin solution (Coring, USA) at 37° C. in a 5% CO2 incubator, with passage treatment twice a week Cells were collected when the cell saturation was 80%-90%, subjected to cell counting, and then inoculated subcutaneously into the right armpit of each BALB/c nude female mouse (6-8 weeks old). After inoculation, tumor growth was observed day by day. When the average tumor volume reached 165.77 mm^3, mice were randomly divided into groups according to the tumor volume, with 6 mice in each group, and then the mice were administrated with drug.
Health status and death situation of the mice were checked every day. In addition, the mice were examined regularly, including tumor growth, activity ability, diet, weight, eyes, hair and other abnormal behaviors, and tumor volume and weight were measured twice a week (on Tuesday and Friday).
Inhibitory effects of the compounds on tumor growth were evaluated according to the relationship between tumor volume and time. The tumor volume was measured by a vernier caliper, with the formula being TV=0.5a×b^2, wherein “a” was the long diameter of the tumor and “b” was the short diameter of the tumor. TGI was calculated by the difference between the median tumor volume of mice in the solvent group and the median tumor volume of mice in the drug group, and expressed as the percentage of median tumor volume in the solvent control group.
TGI was calculated by the following formula: TGI(TGI(%)=[1−(T23−T0)/(V23−V0)]×100)
Data were expressed by Means±Standard Error (Mean±SE), unless otherwise stated. The one way ANOVA test was used to compare whether the difference between the tumor volume in the treatment group and the tumor volume in the control group is statistically significant. P<0.05 was considered as statistically significant. The 5% DMSO+10% polyoxyl 15 hydroxystearate (Solutol)+85% 120 was used as the negative control.

[2] = Pharmacokinetic evaluation in mice (IV and PO); type: in vivo; conditions: mouse, plasma, female Balb/c mice; for bioavailability: peros (PO) 2 mg/kg vs IV 0.2 mg/kg, read-out: F (bioavailability)
Method: Experiment process: 0.1 mg/ml of the clear solution of each test compound in the corresponding solvents (as shown in Table 9) was injected into female Balb/c mice (fasting overnight. 7-9 weeks old) via the tail vein at a dose of […]. Blood samples ([…]) were collected from the jugular vein or the tail vein at the following time points: 0.0833 hour, 0.25 hour, 0.5 hour, 1.0 hour, 2.0 hours, 4.0 hours. 8.0 hours and 24 hours after intravenous administration. 0.2 mg/ml of the test compounds suspended in the corresponding solvents (as shown in Table 9) were given to the female Balb/c mice (fasting overnight. 7-9 weeks old) by gavage at a dose of 2 mg/kg. Blood samples (30 μL) were collected from the jugular vein or the tail vein of the female Balb/c mice at the following time points: 0.0833 hour, 0.25 hour, 0.5 hour, 1.0 hour, 2.0 hours, 4.0 hours, 6.0 hours, 8.0 hours and 24 hours after oral administration. The blood samples were placed in anticoagulant tubes containing EDTA-K2, and centrifuged to separate plasma. The plasma concentration was determined by LC-MS/MS, and a WinNonlin™ Version 6.3 pharmacokinetic software (Pharsight, Mountain View, CA) was used to calculate related pharmacokinetic parameters by a linear-log trapezoidal method in a non-compartmental model. [table]

[3] = 10 mg/kg (D0-D13)/5 mg/kg (D14-D17)/2,5 mg/kg (D18-D28) BID

RET (V804M) kinase, sequence (P07949 29-1114 V804M): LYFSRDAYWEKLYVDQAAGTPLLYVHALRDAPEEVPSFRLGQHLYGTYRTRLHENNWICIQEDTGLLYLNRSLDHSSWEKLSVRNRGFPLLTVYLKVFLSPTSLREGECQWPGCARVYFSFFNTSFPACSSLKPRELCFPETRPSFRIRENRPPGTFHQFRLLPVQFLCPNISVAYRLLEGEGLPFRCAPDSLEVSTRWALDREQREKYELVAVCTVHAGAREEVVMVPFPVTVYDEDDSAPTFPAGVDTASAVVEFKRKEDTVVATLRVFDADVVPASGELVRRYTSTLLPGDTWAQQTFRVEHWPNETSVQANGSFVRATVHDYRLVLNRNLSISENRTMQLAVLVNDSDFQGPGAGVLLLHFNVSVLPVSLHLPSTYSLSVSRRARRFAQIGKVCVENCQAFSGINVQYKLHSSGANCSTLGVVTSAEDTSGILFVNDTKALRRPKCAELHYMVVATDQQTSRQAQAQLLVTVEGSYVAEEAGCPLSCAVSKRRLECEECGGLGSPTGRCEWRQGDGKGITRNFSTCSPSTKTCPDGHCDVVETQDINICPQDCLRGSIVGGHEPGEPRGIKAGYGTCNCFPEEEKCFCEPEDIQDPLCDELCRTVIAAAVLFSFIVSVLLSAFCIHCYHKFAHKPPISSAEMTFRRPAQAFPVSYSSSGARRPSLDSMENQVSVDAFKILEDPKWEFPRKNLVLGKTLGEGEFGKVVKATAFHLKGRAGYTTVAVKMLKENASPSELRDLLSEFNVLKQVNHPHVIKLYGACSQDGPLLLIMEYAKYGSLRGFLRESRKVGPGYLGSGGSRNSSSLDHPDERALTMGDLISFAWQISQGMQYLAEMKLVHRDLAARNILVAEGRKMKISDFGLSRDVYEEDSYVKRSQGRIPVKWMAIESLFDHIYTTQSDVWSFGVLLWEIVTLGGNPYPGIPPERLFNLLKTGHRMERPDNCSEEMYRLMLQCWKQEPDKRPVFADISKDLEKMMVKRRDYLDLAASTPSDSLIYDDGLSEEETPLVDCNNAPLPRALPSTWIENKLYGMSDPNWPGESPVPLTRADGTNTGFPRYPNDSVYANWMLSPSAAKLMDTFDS
RET kinase, sequence (P07949 29-1114): as the sequence (P07949 29-1114 V804M) above, with M776V counted along it

SMILES | IC50 (RET kinase) [nM] | IC50 (RET (V804M) kinase) [nM] | further results
N#Cc1cnn2cc(N3CCOCC3)cc(-c3ccc(N4CC5CC(C4)N5Cc4cnc5[nH]ccc5c4)nc3)c12 [Trifluoroacetate of compound 14] | 0.72 | 0.48 | –
COc1ccc(CN2C3CC2CN(c2ccc(-c4cc(N5CCN(C)CC5)cn5ncc(C#N)c45)cn2)C3)cn1 [Trifluoroacetate of compound 18] | 0.46 | – | TGI% (tumor volume at Day 23 after drug administration) ([1]; 10 mg/kg (D0-D17)/5 mg/kg (D18-D28) QD): 91%
CN1CC=C(c2cc(-c3ccc(N4CCN(Cc5c(F)cccc5F)CC4)nc3)c3c(C#N)cnn3c2)CC1 [Trifluoroacetate of compound 26] | 3.82 | 22 | –
C[C@@H](C(=O)N1CCN(c2ccc(-c3cc(C4=CCOC4)cn4ncc(C#N)c34)cn2)CC1)c1ccccc1 [Trifluoroacetate of compound 28] | 1.58 | 11.6 | –
COc1ccc(CN2C3CC2CN(c2cnc(-c4cc(C5=CCOCC5)cn5ncc(C#N)c45)cn2)C3)cn1 [Trifluoroacetate of compound 30] | – | – | TGI% (tumor volume at Day 23 after drug administration) [1, 3]: 98%; bioavailability [2]: 96.4%
N#Cc1cnn2cc(N3CCCC3)cc(-c3ccc(N4CCC(C(=O)NC5CC(F)(F)C5)CC4)nc3)c12 [Trifluoroacetate of compound 58] | 1.8 | 7.81 | –
CC(C)(O)CNC(=O)C1CCN(c2ccc(-c3cc(N4CCCC4)cn4ncc(C#N)c34)cn2)CC1 [Trifluoroacetate of compound 60] | 3.87 | 19.9 | –
COc1ccc(CN2CCN(c3ccc(-c4cc(N5CCCC5)cn5ncc(C#N)c45)cn3)CC2)cn1 [Trifluoroacetate of compound 63] | 1.6 | 5.68 | –
COc1ccc(CN2C3CC2CN(c2cnc(-c4cc(N5CC[C@H](F)C5)cn5ncc(C#N)c45)cn2)C3)cn1 [Trifluoroacetate of compound 66] | 1.62 | 7.53 | –
COc1ccc(CN2C3CC2CN(c2ccc(-c4cc(N5CCC(F)(F)C5)cn5ncc(C#N)c45)cn2)C3)cn1 [Trifluoroacetate of compound 69] | 1.44 | 1.57 | TGI% (tumor volume at Day 23 after drug administration) [1, 3]: 99%; AUC(0-t) ([2]; intravenous injection (IV) 0.2 mg/kg): 3.87 µM·h; clearance ([2]; intravenous injection (IV) 0.2 mg/kg, read-out: Cl (plasma clearance)): 1.3 mL/min/kg; half-life ([2]; intravenous injection (IV) 0.2 mg/kg, read-out: T1/2 (half-life of elimination) (converted)): 3.6 h; Vd ([2]; intravenous injection (IV) 0.2 mg/kg, read-out: Vdds (volume of distribution at steady state)): 0.42 L/kg; bioavailability [2]: 74.7%; AUC(0-t) ([2]; peros (PO) 2 mg/kg): 29.6 µM·h; Cmax ([2]; peros (PO) 2 mg/kg): 3.63 µM; Tmax ([2]; peros (PO) 2 mg/kg): 4 h
COc1ccc(CN2C3CC2CN(c2cnc(-c4cc(N5CCC(F)(F)C5)cn5ncc(C#N)c45)cn2)C3)cn1 [Trill uoroacetale of compound 65] | 0.66 | 2.6 | –

The remaining compounds from weak to strong by IC50 (RET kinase), led by results:

IC50 (RET kinase) [nM] | IC50 (RET (V804M) kinase) [nM] | SMILES | further results
6.6 | 12 | COc1ccc(CN2C3CC2CN(c2ccc(-c4cc(N5CCC(N(C)C)C5)cn5ncc(C#N)c45)cn2)C3)cn1 (stereo not drawn) [Triftuoroacelate of compound 72] | –
4.37 | 33.6 | CCN1CC=C(c2cc(-c3ccc(N4CCN(Cc5c(F)cccc5F)CC4)nc3)c3c(C#N)cnn3c2)CC1 [Trifluoroacetate of compound 27] | –
1.98 | 8.11 | N#Cc1cnn2cc(N3CCCC3)cc(-c3ccc(N4CCN(Cc5c(F)cccc5F)CC4)nc3)c12 [Triftuoroacetate of compound 57] | –
1.77 | 8.85 | CO[C@H]1C[C@@H](NC(=O)C2CCN(c3ccc(-c4cc(N5CCCC5)cn5ncc(C#N)c45)cn3)CC2)C1 [Trifluoroacetate of compound 61] | –
1.57 | 3.49 | N#Cc1cnn2cc(N3CCOCC3)cc(-c3ccc(N4CC5CC(C4)N5Cc4cnc5c(c4)OCO5)nc3)c12 [Trifluoroacetate of compound 13] | –
1.53 | 1.47 | COc1ccc(CN2C3CC2CN(c2ccc(-c4cc(N5CC[C@@H](F)C5)cn5ncc(C#N)c45)cn2)C3)cn1 [Trifluoroacetate of compound 68] | –
1.47 | 7.43 | COc1ccc(CN2C3CC2CN(c2ccc(-c4cc(C5=CCOCC5)cn5ncc(C#N)c45)cn2)C3)cn1 [Trifluoroacetate of compound 33] | –
1.23 | 2.67 | COc1ccc(CN2C3CC2CN(c2cnc(-c4cc(N5CCCC5)cn5ncc(C#N)c45)cn2)C3)cn1 [Triftuoroacetate of compound 64] | –
1.1 | 8.43 | CN1CC=C(c2cc(-c3ccc(N4CCN(Cc5c(F)cccc5F)CC4)nc3)c3c(C#N)cnn3c2)C1 [Trifluoroacetate of compound 24] | –
1.1 | 3.15 | COc1ccc(CN2C3CC2CN(c2ccc(-c4cc(C5=CCNCC5)cn5ncc(C#N)c45)cn2)C3)cn1 [Trifluoroacetate of compound 32] | –
1.09 | 1.6 | COc1ccc(CN2C3CC2CN(c2cnc(-c4cc(N5CC[C@@H](F)C5)cn5ncc(C#N)c45)cn2)C3)cn1 [Trifluoroacetate of compound 67] | –
0.67 | 2.27 | COc1ccc(CN2C3CC2CN(c2ccc(-c4cc(C5=CCC(O)CC5)cn5ncc(C#N)c45)cn2)C3)cn1 (stereo not drawn) [Trifluoroacetate of compound 39] | –
0.47 | 2.04 | N#Cc1cnn2cc(C3=CCOCC3)cc(-c3ccc(N4CCN(Cc5c(F)cccc5F)CC4)nc3)c12 [Trifluoroacetate of compound 22] | –
